Data from US20260008818A1, “CYCLIC PEPTIDE OR SALT THEREOF, AND USES THEREOF” (FUJIFILM Corporation, priority 2023, published 2026).
Bridge positions count the residues as written; N and C are the ends. Ends that are not written are not given here. COCH2 = acetyl group that carries the bridge

test system: Recombinant Human FGFR1 alpha (IIIc) Fc Chimera Protein; assay: Binding affinity of enzymatically synthesized cyclic peptide to FGFR by ELISA; conditions: luminescence signal at reaction concentration 10 nmol/L, SEQ ID NO: 39 standardized to 1, enzyme synthesis product
How it was run: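 Plate-immobilized FGFR1α(IIIc)-Fc (5 ng/well) incubated with Myc-tagged cyclic peptide 3 h at room temperature; bound peptide detected with anti-Myc antibody (2 h) and chemiluminescence. Signal is FGFR minus no-FGFR wells, normalized to SEQ ID NO: 39 at 10 nmol/L and graded A–D.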

Evaluation result of binding affinity to FGFR	Substance
C (0.1 or more and less than 0.5)	244 (NCWGWAYPIPFRK(COCH2)V; thioether 2-13 (inferred)) [compound 244]
C (0.1 or more and less than 0.5)	245 (WCQYVYLSHVAPFLVRK(COCH2)E; thioether 2-17 (inferred)) [compound 245]
C (0.1 or more and less than 0.5)	246 (PCTYRQVVVHGWYAPFISK(COCH2)V; thioether 2-19 (inferred)) [compound 246]
B (0.5 or more and less than 0.7)	247 (ACKYVPHIFQQHQAPYLVK(COCH2)S; thioether 2-19 (inferred)) [compound 247]
B (0.5 or more and less than 0.7)	248 (QCWKRVRVYGFFAPFVHK(COCH2)I; thioether 2-18 (inferred)) [compound 248]
C (0.1 or more and less than 0.5)	249 (RCWKVLKVLGHRAPFLIAK(COCH2)Y; thioether 2-19 (inferred)) [compound 249]
C (0.1 or more and less than 0.5)	250 (QCLWAQLQLLTHLAPYIVK(COCH2)I; thioether 2-19 (inferred)) [compound 250]
B (0.5 or more and less than 0.7)	251 (DCIWRVTISGHLAPFWFK(COCH2)Y; thioether 2-18 (inferred)) [compound 251]
B (0.5 or more and less than 0.7)	252 (LCRVVLNGWIAPFWTIK(COCH2)E; thioether 2-17 (inferred)) [compound 252]
C (0.1 or more and less than 0.5)	253 (ICWTQLVLDGLYAPFLHK(COCH2)S; thioether 2-18 (inferred)) [compound 253]
C (0.1 or more and less than 0.5)	254 (WCQLRFQGHLAPFIILK(COCH2)H; thioether 2-17 (inferred)) [compound 254]
C (0.1 or more and less than 0.5)	255 (RCWRQIRYGQLLAPFLVK(COCH2)Q; thioether 2-18 (inferred)) [compound 255]
B (0.5 or more and less than 0.7)	256 (NCWGYHYTIPFIK(COCH2)F; thioether 2-13 (inferred)) [compound 256]
C (0.1 or more and less than 0.5)	257 (VCPLTLQGWQAPFWVVK(COCH2)E; thioether 2-17 (inferred)) [compound 257]
A (0.7 or more)	258 (ECYHKLIFLGWEAPFWHK(COCH2)E; thioether 2-18 (inferred)) [compound 258]
B (0.5 or more and less than 0.7)	259 (GCRPVVTHHPWAPFWVVTK(COCH2)E; thioether 2-19 (inferred)) [compound 259]
B (0.5 or more and less than 0.7)	260 (ECVLQRLFFEGHLAPFILK(COCH2)I; thioether 2-19 (inferred)) [compound 260]
C (0.1 or more and less than 0.5)	261 (QCQWNIYRHQWAPFWVIEK(COCH2)S; thioether 2-19 (inferred)) [compound 261]
B (0.5 or more and less than 0.7)	262 (FCYQRLYFQGHIAPYWFVK(COCH2)D; thioether 2-19 (inferred)) [compound 262]

Evaluation result of binding affinity to FGFR	Substance
B (0.5 or more and less than 0.7)	263 (ICRLSWFGFKAPFWIVDSK(COCH2)Q; thioether 2-19 (inferred)) [compound 263]
A (0.7 or more)	264 (ACQWGRWALQGHQVPFLTK(COCH2)I; thioether 2-19 (inferred)) [compound 264]
C (0.1 or more and less than 0.5)	265 (FCQFETLKFFGWEAPYLVK(COCH2)L; thioether 2-19 (inferred)) [compound 265]
C (0.1 or more and less than 0.5)	266 (PCSWVQLQYQGFTAPFLVK(COCH2)Y; thioether 2-19 (inferred)) [compound 266]
C (0.1 or more and less than 0.5)	267 (ACRWAQLQFLSWGAPFLVK(COCH2)T; thioether 2-19 (inferred)) [compound 267]
C (0.1 or more and less than 0.5)	268 (VCRLSFWGHAAPFLSVK(COCH2)T; thioether 2-17 (inferred)) [compound 268]
C (0.1 or more and less than 0.5)	269 (VCYEQLVVWGHIAPFLTK(COCH2)H; thioether 2-18 (inferred)) [compound 269]
C (0.1 or more and less than 0.5)	270 (QCYVQLYVWGHPAPFYWDK(COCH2)T; thioether 2-19 (inferred)) [compound 270]
B (0.5 or more and less than 0.7)	271 (QCWSQVSTPWGHTAPFIFK(COCH2)D; thioether 2-19 (inferred)) [compound 271]
B (0.5 or more and less than 0.7)	272 (WCHIAPFLYHDGIQWGHLK(COCH2)V; thioether 2-19 (inferred)) [compound 272]
C (0.1 or more and less than 0.5)	273 (QCYVQLYVWGHPAPFYWDK(COCH2)N; thioether 2-19 (inferred)) [compound 273]
C (0.1 or more and less than 0.5)	274 (QCYVQLYFWGHPAPFYWDK(COCH2)T; thioether 2-19 (inferred)) [compound 274]
B (0.5 or more and less than 0.7)	275 (WCIRRLYSPWGHVAPFWVK(COCH2)P; thioether 2-19 (inferred)) [compound 275]
C (0.1 or more and less than 0.5)	276 (QCYVQLYVWGHPAPFYWDK(COCH2)S; thioether 2-19 (inferred)) [compound 276]
C (0.1 or more and less than 0.5)	277 (QCYVQLYVWGHPAPFYWDK(COCH2)I; thioether 2-19 (inferred)) [compound 277]
C (0.1 or more and less than 0.5)	278 (SCIVPLYIYGWRAPYWLK(COCH2)V; thioether 2-18 (inferred)) [compound 278]
C (0.1 or more and less than 0.5)	279 (YCTIQRLWLLHEAPFWVK(COCH2)T; thioether 2-18 (inferred)) [compound 279]
C (0.1 or more and less than 0.5)	280 (PCWTRVVLLHHYAPFWAK(COCH2)I; thioether 2-18 (inferred)) [compound 280]
B (0.5 or more and less than 0.7)	281 (FCTIQQLILVNHRAPFWVK(COCH2)T; thioether 2-19 (inferred)) [compound 281]

Evaluation result of binding affinity to FGFR	Substance
C (0.1 or more and less than 0.5)	282 (TCQWEQLRIGPHLAPFRSK(COCH2)R; thioether 2-19 (inferred)) [compound 282]
B (0.5 or more and less than 0.7)	283 (KCSYERLQFHGHEAPFRVK(COCH2)V; thioether 2-19 (inferred)) [compound 283]
A (0.7 or more)	284 (HCKYERLQFHGHEAPFRVK(COCH2)V; thioether 2-19 (inferred)) [compound 284]
B (0.5 or more and less than 0.7)	285 (HCSYKRLQFHGHEAPFRVK(COCH2)V; thioether 2-19 (inferred)) [compound 285]
A (0.7 or more)	286 (HCSYEKLQFHGHEAPFRVK(COCH2)V; thioether 2-19 (inferred)) [compound 286]
A (0.7 or more)	287 (HCSYERLKFHGHEAPFRVK(COCH2)V; thioether 2-19 (inferred)) [compound 287]
B (0.5 or more and less than 0.7)	288 (HCSYERLQFKGHEAPFRVK(COCH2)V; thioether 2-19 (inferred)) [compound 288]
C (0.1 or more and less than 0.5)	289 (HCSYERLQFHKHEAPFRVK(COCH2)V; thioether 2-19 (inferred)) [compound 289]
B (0.5 or more and less than 0.7)	290 (HCSYERLQFHGHKAPFRVK(COCH2)V; thioether 2-19 (inferred)) [compound 290]
C (0.1 or more and less than 0.5)	291 (HCSYERLQFHGHEAKFRVK(COCH2)V; thioether 2-19 (inferred)) [compound 291]
B (0.5 or more and less than 0.7)	292 (HCSYERLQFHGHEAPFKVK(COCH2)V; thioether 2-19 (inferred)) [compound 292]
C (0.1 or more and less than 0.5)	293 (HCSYERLQFHGHEAPFRKK(COCH2)V; thioether 2-19 (inferred)) [compound 293]
A (0.7 or more)	294 (HCSYERLQFHGHEAPFRVK(COCH2)K; thioether 2-19 (inferred)) [compound 294]
A (0.7 or more)	295 (MCSYERLQFHGHEAPFRVK(COCH2)V; thioether 2-19 (inferred)) [compound 295]
A (0.7 or more)	296 (HCMYERLQFHGHEAPFRVK(COCH2)V; thioether 2-19 (inferred)) [compound 296]
C (0.1 or more and less than 0.5)	297 (HCSMERLQFHGHEAPFRVK(COCH2)V; thioether 2-19 (inferred)) [compound 297]
B (0.5 or more and less than 0.7)	298 (HCSYMRLQFHGHEAPFRVK(COCH2)V; thioether 2-19 (inferred)) [compound 298]
C (0.1 or more and less than 0.5)	299 (HCSYEMLQFHGHEAPFRVK(COCH2)V; thioether 2-19 (inferred)) [compound 299]
